# According to patent US11285219B2, “Peptide-oligourea hybrid compounds” (UREKA SARL, priority 2019, dated 2022):
# Numbered stars: 1 amine (or outer) side, 2 acyl side, 3 side chain; on linkers, the order of the positions; unused ones are H or OH. Bridge positions count the residues as written; N and C are the ends. Peptide text beside a SMILES is read from it. I, II: the chains in the order shown. X7 = C[C@@H](CNC(=O)N[C@@H](C)CNC(=O)[*:1])NC(=O)NC[C@H](C)N[*:2]; X6 = CC(CNC(=O)NC(C)CNC(=O)[*:1])NC(=O)NCC(C)N[*:2]
# Molecular target: T1, mouse GLP-1 receptor endogenously expressed in βTC6 cells (Mus musculus, UniProt O35659)
# T1 construct: host or cells: βTC6 cells
# T1 sequence (O35659 22-463): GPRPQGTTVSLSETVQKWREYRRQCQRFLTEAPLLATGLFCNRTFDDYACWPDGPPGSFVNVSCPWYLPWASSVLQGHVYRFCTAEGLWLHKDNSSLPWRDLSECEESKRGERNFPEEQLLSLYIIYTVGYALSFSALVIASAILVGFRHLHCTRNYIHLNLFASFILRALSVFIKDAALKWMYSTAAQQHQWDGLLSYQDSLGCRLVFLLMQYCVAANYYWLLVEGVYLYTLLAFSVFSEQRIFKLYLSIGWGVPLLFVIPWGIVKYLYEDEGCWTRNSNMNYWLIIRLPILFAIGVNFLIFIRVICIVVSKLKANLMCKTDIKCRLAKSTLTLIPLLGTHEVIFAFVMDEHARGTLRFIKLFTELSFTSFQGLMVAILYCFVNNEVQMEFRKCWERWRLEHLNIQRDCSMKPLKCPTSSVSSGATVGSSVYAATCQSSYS
# Test: cAMP production functional assay (HTRF), agonist activity at GLP-1R
# Assay type: cell-based
# Settings: cAMP production; Table 1
# Description: The agonistic activity of these hybrids were obtained by functional assays using cells expressing the […] and by measuring the receptor-mediated cAMP produced (see supporting information).
# In vitro pharmacology (EC50). […] Following incubation, the cells were lysed and the fluorescence acceptor (D2-labeled cAMP) and fluorescence donor (anti-cAMP antibody labeled with europium cryptate) were added.
row,Compound,"Potency (%), percentage of potency compare to GLP-1-G^2 [%]"
1,"CC[C@H](C)[C@H](NC(=O)[C@H](Cc1ccccc1)NC(=O)[C@H](CCC(=O)O)NC(=O)[C@H](CCCCN)NC(=O)[C@H](C)NC(=O)[C@H](C)NC(=O)[C@H](CCC(N)=O)NC(=O)CNC(=O)[C@H](CCC(=O)O)NC(=O)[C@H](CC(C)C)NC(=O)NC[C@H](C)NC(=O)NC[C@H](C)NC(=O)NC[C@H](C)NC(=O)[C@H](CC(=O)O)NC(=O)[C@H](CO)NC(=O)[C@@H](NC(=O)[C@H](Cc1ccccc1)NC(=O)[C@@H](NC(=O)CNC(=O)[C@H](CCC(=O)O)NC(=O)CNC(=O)[C@@H](N)Cc1c[nH]cn1)[C@@H](C)O)[C@@H](C)O)C(=O)N[C@@H](C)C(=O)N[C@@H](Cc1c[nH]c2ccccc12)C(=O)N[C@@H](CC(C)C)C(=O)N[C@H](C(=O)N[C@@H](CCCCN)C(=O)NCC(=O)N[C@@H](CCCNC(=N)N)C(=O)NCC(N)=O)C(C)C [Compound 3, GG2[A^UA^UA^U]^10-13]",0.04
2,"CC[C@H](C)[C@H](NC(=O)[C@H](Cc1ccccc1)NC(=O)[C@H](CCC(=O)O)NC(=O)[C@H](CCCCN)NC(=O)NC[C@H](C)NC(=O)NC[C@H](C)NC(=O)NC[C@H](C)NC(=O)[C@H](CCC(=O)O)NC(=O)[C@H](CC(C)C)NC(=O)[C@H](Cc1ccc(O)cc1)NC(=O)[C@H](CO)NC(=O)[C@H](CO)NC(=O)[C@@H](NC(=O)[C@H](CC(=O)O)NC(=O)[C@H](CO)NC(=O)[C@@H](NC(=O)[C@H](Cc1ccccc1)NC(=O)[C@@H](NC(=O)CNC(=O)[C@H](CCC(=O)O)NC(=O)CNC(=O)[C@@H](N)Cc1c[nH]cn1)[C@@H](C)O)[C@@H](C)O)C(C)C)C(=O)N[C@@H](C)C(=O)N[C@@H](Cc1c[nH]c2ccccc12)C(=O)N[C@@H](CC(C)C)C(=O)N[C@H](C(=O)N[C@@H](CCCCN)C(=O)NCC(=O)N[C@@H](CCCNC(=N)N)C(=O)NCC(N)=O)C(C)C [Compound 12, GG2[A^UA^UA^U]^16-19]",0.1
3,"CC[C@H](C)[C@H](NC(=O)[C@H](Cc1ccccc1)NC(=O)[C@H](CCC(=O)O)NC(=O)[C@H](CCCCN)NC(=O)[C@H](C)NC(=O)[C@H](C)NC(=O)[C@H](CCC(N)=O)NC(=O)CNC(=O)[C@H](CCC(=O)O)NC(=O)[C@H](CC(C)C)NC(=O)[C@H](Cc1ccc(O)cc1)NC(=O)[C@H](CO)NC(=O)[C@H](CO)NC(=O)[C@@H](NC(=O)[C@H](CC(=O)O)NC(=O)[C@H](CO)NC(=O)[C@@H](NC(=O)[C@H](Cc1ccccc1)NC(=O)[C@@H](NC(=O)CNC(=O)[C@H](CCC(=O)O)NC(=O)CNC(=O)[C@@H](N)Cc1c[nH]cn1)[C@@H](C)O)[C@@H](C)O)C(C)C)C(=O)NC(C)CNC(=O)NC(C)CNC(=O)NC(C)CNC(=O)N[C@@H](CCCCN)C(=O)NCC(=O)N[C@@H](CCCNC(=N)N)C(=O)NCC(N)=O (stereo partly shown) [Compound 18, GG2[A^UA^UA^U]^24-27]",<0.01
4,"CC[C@H](C)[C@H](NC(=O)[C@H](Cc1ccccc1)NC(=O)[C@H](CCC(=O)O)NC(=O)[C@H](CCCCN)NC(=O)[C@H](C)NC(=O)[C@H](C)NC(=O)[C@H](CCC(N)=O)NC(=O)CNC(=O)[C@H](CCC(=O)O)NC(=O)NC[C@H](C)NC(=O)NC[C@H](C)NC(=O)NC[C@H](C)NC(=O)[C@@H](NC(=O)[C@H](CC(=O)O)NC(=O)[C@H](CO)NC(=O)[C@@H](NC(=O)[C@H](Cc1ccccc1)NC(=O)[C@@H](NC(=O)CNC(=O)[C@H](CCC(=O)O)NC(=O)CNC(=O)[C@@H](N)Cc1c[nH]cn1)[C@@H](C)O)[C@@H](C)O)C(C)C)C(=O)N[C@@H](C)C(=O)N[C@@H](Cc1c[nH]c2ccccc12)C(=O)N[C@@H](CC(C)C)C(=O)N[C@H](C(=O)N[C@@H](CCCCN)C(=O)NCC(=O)N[C@@H](CCCNC(=N)N)C(=O)NCC(N)=O)C(C)C [Compound 4, GG2[A^UA^UA^U]^11-14] (I: EGQAAKEFIAWLVKGRG-NH2 / II: H-HGEGTFTSDV; linker I:N-II:C via X7)",0.2
5,"CC[C@H](C)[C@H](NC(=O)[C@H](Cc1ccccc1)NC(=O)[C@H](CCC(=O)O)NC(=O)[C@H](CCCCN)NC(=O)[C@H](C)NC(=O)[C@H](C)NC(=O)[C@H](CCC(N)=O)NC(=O)CNC(=O)NCC(C)NC(=O)NCC(C)NC(=O)NCC(C)NC(=O)[C@H](CO)NC(=O)[C@@H](NC(=O)[C@H](CC(=O)O)NC(=O)[C@H](CO)NC(=O)[C@@H](NC(=O)[C@H](Cc1ccccc1)NC(=O)[C@@H](NC(=O)CNC(=O)[C@H](CCC(=O)O)NC(=O)CNC(=O)[C@@H](N)Cc1c[nH]cn1)[C@@H](C)O)[C@@H](C)O)C(C)C)C(=O)N[C@@H](C)C(=O)N[C@@H](Cc1c[nH]c2ccccc12)C(=O)N[C@@H](CC(C)C)C(=O)N[C@H](C(=O)N[C@@H](CCCCN)C(=O)NCC(=O)N[C@@H](CCCNC(=N)N)C(=O)NCC(N)=O)C(C)C (stereo partly shown) [Compound 6, GG2[A^UA^UA^U]^12-15] (I: GQAAKEFIAWLVKGRG-NH2 / II: H-HGEGTFTSDVS; linker I:N-II:C via X6)",<0.01
6,"CC(C)C[C@H](NC(=O)[C@H](Cc1ccc(O)cc1)NC(=O)[C@H](CO)NC(=O)[C@H](CO)NC(=O)[C@@H](NC(=O)[C@H](CC(=O)O)NC(=O)[C@H](CO)NC(=O)[C@@H](NC(=O)[C@H](Cc1ccccc1)NC(=O)[C@@H](NC(=O)CNC(=O)[C@H](CCC(=O)O)NC(=O)CNC(=O)[C@@H](N)Cc1c[nH]cn1)[C@@H](C)O)[C@@H](C)O)C(C)C)C(=O)N[C@@H](CCC(=O)O)C(=O)NCC(=O)N[C@@H](CCC(N)=O)C(=O)N[C@@H](C)C(=O)N[C@@H](C)C(=O)N[C@@H](CCCCN)C(=O)N[C@@H](CCC(=O)O)C(=O)N[C@@H](Cc1ccccc1)C(=O)N[C@@H](C)CNC(=O)N[C@@H](C)CNC(=O)N[C@@H](C)CNC(=O)N[C@H](C(=O)N[C@@H](CCCCN)C(=O)NCC(=O)N[C@@H](CCCNC(=N)N)C(=O)NCC(N)=O)C(C)C [Compound 17, GG2[A^UA^UA^U]^23-26]",0.01
7,"CC[C@H](C)[C@H](NC(=O)[C@H](Cc1ccccc1)NC(=O)[C@H](CCC(=O)O)NC(=O)NC[C@H](C)NC(=O)NC[C@H](C)NC(=O)NC[C@H](C)NC(=O)CNC(=O)[C@H](CCC(=O)O)NC(=O)[C@H](CC(C)C)NC(=O)[C@H](Cc1ccc(O)cc1)NC(=O)[C@H](CO)NC(=O)[C@H](CO)NC(=O)[C@@H](NC(=O)[C@H](CC(=O)O)NC(=O)[C@H](CO)NC(=O)[C@@H](NC(=O)[C@H](Cc1ccccc1)NC(=O)[C@@H](NC(=O)CNC(=O)[C@H](CCC(=O)O)NC(=O)CNC(=O)[C@@H](N)Cc1c[nH]cn1)[C@@H](C)O)[C@@H](C)O)C(C)C)C(=O)N[C@@H](C)C(=O)N[C@@H](Cc1c[nH]c2ccccc12)C(=O)N[C@@H](CC(C)C)C(=O)N[C@H](C(=O)N[C@@H](CCCCN)C(=O)NCC(=O)N[C@@H](CCCNC(=N)N)C(=O)NCC(N)=O)C(C)C [Compound 13, GG2[A^UA^UA^U]^17-20]",0.01
